Laboratory results published in patent US20250368649A1, “TETRAHYDROPYRIDOPYRIMIDINE PAN-KRAS INHIBITORS” (Mirati Therapeutics, Inc., priority 2022, published 2025).

Columns and labels:
KRas G12D = KRas G12D (Homo sapiens, UniProt P01116, G12D); test: biochemical; conditions: Binding to KRas (IC50 nM) G12D, TR-FRET displacement, KRas G12D
ASPC1 cells = test: Inhibition of KRas-mediated phosphorylation of ERK (Cisbio HTRF pERK), ASPC1 cells; assay type: cell-based; conditions: Homo sapiens, AsPC-1 cells; for IC50: ASPC1, 3 h, 3 hr compound incubation
MKN1 cells = test: Inhibition of KRas-mediated phosphorylation of ERK (Cisbio HTRF pERK), MKN1 cells; assay type: cell-based; conditions: Homo sapiens
Summary of the method: (§1)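 Day 1: 6,000 cells/well plated, RPMI + 10% FBS.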

PSN1 cells = test: Inhibition of KRas-mediated phosphorylation of ERK (Cisbio HTRF pERK), PSN1 cells; assay type: cell-based; conditions: Homo sapiens, PSN1, 3 h
Summary of the method: as §1

H727 cells = test: Inhibition of KRas-mediated phosphorylation of ERK (Cisbio HTRF pERK), H727 cells; assay type: cell-based; conditions: Homo sapiens; for IC50: NCI-H727, 3 h, 3 hr compound incubation
A549 cells = test: Inhibition of KRas-mediated phosphorylation of ERK (Cisbio HTRF pERK), A549 cells; assay type: cell-based; conditions: Homo sapiens; for IC50: A549, 3 h, 3 hr compound incubation; for inhibition at 0.1 µM: single point at 100 nM, 3 hrs compound incubation
H460 cells = test: Inhibition of KRas-mediated phosphorylation of ERK (Cisbio HTRF pERK), H460 cells; assay type: cell-based; conditions: Homo sapiens; for IC50: NCI-H460, 3 h, 3 hr compound incubation; for inhibition at 0.1 µM: NCI-H460, single point at 100 nM, 3 hrs compound incubation
KRas G12R = KRas G12R (Homo sapiens, UniProt P01116, G12R); test: biochemical; conditions: Binding to KRas (IC50 nM) G12R, TR-FRET displacement, KRas G12R
KRas G12R, sequence (P01116 1-169 isoform P01116-2 G12R): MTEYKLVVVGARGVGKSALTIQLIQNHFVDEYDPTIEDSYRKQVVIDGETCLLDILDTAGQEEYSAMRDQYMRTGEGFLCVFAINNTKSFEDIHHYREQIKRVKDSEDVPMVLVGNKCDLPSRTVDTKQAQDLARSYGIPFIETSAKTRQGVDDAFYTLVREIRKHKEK

KRas G12V = KRas G12V (Homo sapiens, UniProt P01116, G12V); test: biochemical; conditions: Binding to KRas (IC50 nM) G12V, TR-FRET displacement, KRas G12V
KRas G12V, sequence (P01116 1-169 isoform P01116-2 G12V): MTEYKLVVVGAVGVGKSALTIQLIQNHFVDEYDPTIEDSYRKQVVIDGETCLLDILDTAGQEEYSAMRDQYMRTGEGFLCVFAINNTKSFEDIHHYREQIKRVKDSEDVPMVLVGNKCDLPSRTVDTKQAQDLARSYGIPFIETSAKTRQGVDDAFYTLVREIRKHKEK

HCT116 cells = test: Inhibition of KRas-mediated phosphorylation of ERK (Cisbio HTRF pERK), HCT116 cells; assay type: cell-based; conditions: Homo sapiens; for IC50: HCT-116, 3 h, 3 hr compound incubation; for inhibition at 0.1 µM: HCT-116, single point at 100 nM, 3 hrs compound incubation
H358 cells = test: Inhibition of KRas-mediated phosphorylation of ERK (Cisbio HTRF pERK), H358 cells; assay type: cell-based; conditions: Homo sapiens; for IC50: NCI-H358, 3 h, 3 hr compound incubation; for inhibition at 0.1 µM: NCI-H358, single point at 100 nM, 3 hrs compound incubation
[1] = MKN-1, 3 hr compound incubation
[2] = MKN-1, 3 hour compound incubation, Cisbio pERK HTRF
[3] = 3 hour compound incubation, Cisbio pERK HTRF

KRas G12D, sequence (P01116 1-169 isoform P01116-2 G12D): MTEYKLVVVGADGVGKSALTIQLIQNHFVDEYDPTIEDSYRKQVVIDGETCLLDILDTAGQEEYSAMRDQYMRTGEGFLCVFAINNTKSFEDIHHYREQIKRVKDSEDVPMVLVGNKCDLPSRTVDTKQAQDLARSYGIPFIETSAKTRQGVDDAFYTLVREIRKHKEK

SMILES | IC50 (KRas G12D) | IC50 (ASPC1 cells) | IC50 (MKN1 cells; [1]) | IC50 (PSN1 cells; 3 hr compound incubation) | IC50 (H727 cells) | IC50 (A549 cells) | IC50 (H460 cells) | IC50 (KRas G12R) | IC50 (KRas G12V) | IC50 (HCT116 cells) | IC50 (H358 cells) | IC50 (ASPC1 cells; Cisbio pERK HTRF) | IC50 (MKN1 cells; [2]) | IC50 (PSN1 cells; [3]) | IC50 (H727 cells; Cisbio pERK HTRF) | IC50 (A549 cells; Cisbio pERK HTRF) | IC50 (H460 cells; Cisbio pERK HTRF) | IC50 (HCT116 cells; Cisbio pERK HTRF) | IC50 (H358 cells; Cisbio pERK HTRF) | inhibition at 0.1 µM (A549 cells) | further results
CCc1c(F)ccc2cc(O)cc(N3CCc4c(nc(OC[C@@]56CCCN5C[C@H](F)C6)nc4N4CCCn5ncc(C(=O)NC)c5C4)C3)c12 [Example 635, 5-(7-(8-ethyl-7-fluoro-3-hydroxynaphthalen-1-yl)-2-(((2R,7aS)-2-fluorotetrahydro-1H-pyrrolizin-7a(5H)-yl)methoxy)-5,6,7,8-tetrahydropyrido[3,4-d]pyrimidin-4-yl)-N-methyl-5,6,7,8-tetrahydro-4H-pyrazolo[1,5-a][1,4]diazepine-3-carboxamide] | < 2 nM | 134 nM | 158 nM | > 10000 nM | 230 nM | 609 nM | 567 nM | < 2 nM | < 2 nM | 1320 nM | 87 nM |  |  |  |  |  |  |  |  |  | 
CCc1c(F)ccc2cc(O)cc(N3CCc4c(nc(OC[C@]56CCCN5[C@H](COC(=O)N(C)C)CC6)nc4N4CCCn5nc(C(=O)N(C)C)cc5C4)C3)c12 [Example 586, ((3S,7aR)-7a-(((4-(2-(dimethylcarbamoyl)-7,8-dihydro-4H-pyrazolo[1,5-a][1,4]diazepin-5(6H)-yl)-7-(8-ethyl-7-fluoro-3-hydroxynaphthalen-1-yl)-5,6,7,8-tetrahydropyrido[3,4-d]pyrimidin-2-yl)oxy)methyl)hexahydro-1H-pyrrolizin-3-yl)methyl dimethylcarbamate] | < 2 nM |  |  |  |  |  |  | < 2 nM | < 2 nM |  |  | 19 nM | 38 nM | 8160 nM | 29 nM | 48 nM | 137 nM | 336 nM | 23 nM |  | 
CCc1c(F)ccc2cc(O)cc(N3CCc4c(nc(OC[C@@]56CCCN5C[C@H](F)C6)nc4N4CCCn5nc(CNC(C)=O)cc5C4)C3)c12 [Example 353, N-((5-(7-(8-ethyl-7-fluoro-3-hydroxynaphthalen-1-yl)-2-(((2R,7aS)-2-fluorohexahydro-1H-pyrrolizin-7a-yl)methoxy)-5,6,7,8-tetrahydropyrido[3,4-d]pyrimidin-4-yl)-5,6,7,8-tetrahydro-4H-pyrazolo[1,5-a][1,4]diazepin-2-yl)methyl)acetamide] | < 2 nM |  |  |  |  |  |  | 4 nM | 3 nM |  |  | 400 nM | 516 nM | > 10000 nM | 561 nM |  |  |  |  | 26% | inhibition at 0.1 µM (H460 cells): -15%; inhibition at 0.1 µM (HCT116 cells): 6%; inhibition at 0.1 µM (H358 cells): -10%
O=C1NC(=O)[C@]2(CCCN(c3nc(OC[C@@]45CCCN4C[C@H](F)C5)nc4c3CCN(c3cc(O)cc5ccc(F)c(Cl)c35)C4)C2)N1 [Example 587, (R)-7-(7-(8-chloro-7-fluoro-3-hydroxynaphthalen-1-yl)-2-(((2R,7aS)-2-fluorotetrahydro-1H-pyrrolizin-7a(5H)-yl)methoxy)-5,6,7,8-tetrahydropyrido[3,4-d]pyrimidin-4-yl)-1,3,7-triazaspiro[4.5]decane-2,4-dione] | < 2 nM |  |  |  |  |  |  | < 2 nM | < 2 nM |  |  | 131 nM | 3.3 nM | 170 nM | 164 nM | 33 nM | 25 nM | 82 nM | 11 nM |  | 
CCc1c(F)ccc2cc(O)cc(N3CCc4c(nc(OC[C@@]56CCCN5C[C@H](F)C6)nc4N4CCCCn5nc(C(=O)N(C)C6CC6)cc5C4)C3)c12 [Example 592, N-cyclopropyl-5-(7-(8-ethyl-7-fluoro-3-hydroxynaphthalen-1-yl)-2-(((2R,7aS)-2-fluorotetrahydro-1H-pyrrolizin-7a(5H)-yl)methoxy)-5,6,7,8-tetrahydropyrido[3,4-d]pyrimidin-4-yl)-N-methyl-4,5,6,7,8,9-hexahydropyrazolo[1,5-a][1,4] diazocine-2-carboxamide] | < 2 nM |  |  |  |  |  |  | < 2 nM | < 2 nM |  |  | 14 nM | 11 nM | 3450 nM | 8 nM | 29 nM | 50 nM | 148 nM | 4 nM |  | 
CCc1c(F)ccc2cc(O)cc(N3CCc4c(nc(OC[C@@]56CCCN5C[C@H](F)C6)nc4N4CCCn5nc(C(=O)N6CC[C@H]7C[C@H]76)cc5C4)C3)c12 [Example 614, ((1R,5S)-2-azabicyclo[3.1.0]hexan-2-yl)(5-(7-(8-ethyl-7-fluoro-3-hydroxynaphthalen-1-yl)-2-(((2R,7aS)-2-fluorotetrahydro-1H-pyrrolizin-7a(5H)-yl)methoxy)-5,6,7,8-tetrahydropyrido[3,4-d]pyrimidin-4-yl)-5,6,7,8-tetrahydro-4H-pyrazolo[1,5-a][1,4]diazepin-2-yl)methanone] | < 2 nM | 4 nM | 5.5 nM | 4070 nM | 10 nM | 3 nM | 40 nM | < 2 nM | < 2 nM | 123 nM | 4 nM |  |  |  |  |  |  |  |  |  | 
CCc1c(F)ccc2cc(O)cc(N3CCc4c(nc(OC[C@@]56CCCN5C[C@H](F)C6)nc4N4CCCn5nc(C(=O)N6CC7(CCCN7)C6)cc5C4)C3)c12 [Example 277, (5-(7-(8-ethyl-7-fluoro-3-hydroxynaphthalen-1-yl)-2-(((2R,7aS)-2-fluorohexahydro-1H-pyrrolizin-7a-yl)methoxy)-5,6,7,8-tetrahydropyrido[3,4-d]pyrimidin-4-yl)-5,6,7,8-tetrahydro-4H-pyrazolo[1,5-a][1,4]diazepin-2-yl)(2,5-diazaspiro[3.4]octan-2-yl)methanone] | < 2 nM |  |  |  |  |  |  | < 2 nM | < 2 nM |  |  | 37 nM | 41.7 nM | > 10000 nM | 210 nM |  |  |  |  | 25% | inhibition at 0.1 µM (H460 cells): 12%; inhibition at 0.1 µM (HCT116 cells): -2%; inhibition at 0.1 µM (H358 cells): 64%
Cc1c(F)ccc2cc(O)cc(N3CCc4c(nc(OC[C@@]56CCCN5C[C@H](F)C6)nc4N4CCCC5(CNS(=O)(=O)N5)C4)C3)c12 (stereo partly drawn) [Example 512, 7-(7-(7-fluoro-3-hydroxy-8-methylnaphthalen-1-yl)-2-(((2R,7aS)-2-fluorohexahydro-1H-pyrrolizin-7a-yl)methoxy)-5,6,7,8-tetrahydropyrido[3,4-d]pyrimidin-4-yl)-2-thia-1,3,7-triazaspiro[4.5]decane 2,2-dioxide] | < 2 nM |  |  |  |  |  |  | 2 nM | < 2 nM |  |  | 30 nM | 12.6 nM | 276 nM | 85 nM |  |  |  |  | 71% | inhibition at 0.1 µM (ASPC1 cells; ASPC1, single point at 100 nM, 3 hrs compound incubation): 74%; inhibition at 0.1 µM (H727 cells; NCI-H727, single point at 100 nM, 3 hrs compound incubation): 42%; inhibition at 0.1 µM (H460 cells): 79%; inhibition at 0.1 µM (HCT116 cells): 56%; inhibition at 0.1 µM (H358 cells): 92%
O=S1(=O)CCC2(CCCN(c3nc(OC[C@@]45CCCN4C[C@H](F)C5)nc4c3CCN(c3cc(O)cc5ccc(F)c(Cl)c35)C4)C2)N1 (stereo partly drawn) [Example 632, 7-(7-(8-chloro-7-fluoro-3-hydroxynaphthalen-1-yl)-2-(((2R,7aS)-2-fluorotetrahydro-1H-pyrrolizin-7a(5H)-yl)methoxy)-5,6,7,8-tetrahydropyrido[3,4-d]pyrimidin-4-yl)-2-thia-1,7-diazaspiro[4.5]decane 2,2-dioxide] | < 2 nM | 12 nM | 4.1 nM | 716 nM | 32 nM | 19 nM | 21 nM | < 2 nM | < 2 nM | 55 nM | 6 nM |  |  |  |  |  |  |  |  |  | 
